Patent publication US20260285846A1, “REV-ERB AGONISTS FOR TH17-MEDIATED INFLAMMATORY DISORDERS” (UNIVERSITY OF FLORID RESEARCH FOUNDATION, iNCORPORATED, priority 2021, published 2026)

Target: REV-ERBα LBD (Homo sapiens, UniProt P20393, DEL324-422)
Assay: biochemical
Conditions: FRET assay; 6xHistag-REV-ERBα LBD with FITC-labeled SMRT corepressor peptide; read-out: REVERBα (Agonism of REV-ERBα, EC50)
Protocol: TR-FRET corepressor interaction assay. The time-resolved fluorescence resonance energy transfer (TR-FRET) assay was performed in black low-volume 384-well plates (Greiner). Each well contained 4 nM 6×Histag-REV-ERBα LBD (human; residues 281-614 A324-422) or 6×Histag-REV-ERBα LBD (human; residues 381-579) protein expressed in and purified from Escherichia coli using nickel affinity and size exclusion chromatography; 1 nM LanthaScreen Elite Tb-anti-HIS Antibody (Thermo Fisher Scientific); and 400 nM FITC-labeled peptide derived from the SMRT corepressor ([…]) containing a N-terminal FITC label with a six-carbon linker (Ahx) and an amidated C-terminus for stability (synthesized by LifeTein) in TR-FRET buffer (20 mM potassium phosphate, pH 7.4, 50 mM potassium chloride, 1 mM dithiothreitol, and 0.005% Tween-20). Ligand stocks were prepared via serial dilution in DMSO, added to wells in triplicate, and plates were incubated at 4° C. for 2 h and read using a BioTek Synergy Neo multimode plate reader. The Tb donor was excited at 340 nm; its fluorescence emission was monitored at 495 nm, and the acceptor FITC emission was measured at 520 nm; and the TR-FRET ratio was calculated as the signal at 520 nm divided by the signal at 495 nm. Data were plotted using GraphPad Prism as TR-FRET ratio vs. ligand concentration and fit to sigmoidal dose response curve equation.
Exemplary compounds of the present disclosure were assayed as described above to assess agonism of REV-ERBα. Results of the FRET assay are shown in Table 2 below (A: EC50<100 nM; B: EC50 100 nM-1000 nM; C: EC50>1000 nM; NT: not tested).

Chain of REV-ERBα LBD (P20393 with tags, fused parts or gaps DEL324-422): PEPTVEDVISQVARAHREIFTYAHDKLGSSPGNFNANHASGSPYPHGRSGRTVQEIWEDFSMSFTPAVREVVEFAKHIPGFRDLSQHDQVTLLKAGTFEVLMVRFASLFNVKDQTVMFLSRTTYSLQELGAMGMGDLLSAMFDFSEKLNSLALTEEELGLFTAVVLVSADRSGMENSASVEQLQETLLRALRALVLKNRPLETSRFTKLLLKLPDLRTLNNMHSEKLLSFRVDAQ
Chain of REV-ERBα LBD (Q9Y618 2335-2356 partner limits assumed): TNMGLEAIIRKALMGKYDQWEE

SMILES	EC50 [nM]
CC(NS(=O)(=O)C1CC1)c1cn(CC(C)(C)C)c2cc(-c3ncccc3C(F)(F)F)c(F)cc12 (single isomer, unassigned) [Compound 17, (R or S)—N-(1-(5-fluoro-1-neopentyl-6-(3-(trifluoromethyl)pyridine-2-yl)-1H-indol-3-yl)ethyl)cyclopropane sulfonamide]	100 to 1000
CC(NS(=O)(=O)C1CC1)c1cn(CC(C)(C)C)c2cc(-c3ncccc3C(F)(F)F)c(F)cc12 (single isomer, unassigned) [Compound 18, (S or R)—N-(1-(5-fluoro-1-neopentyl-6-(3-(trifluoromethyl)pyridine-2-yl)-1H-indol-3-yl)ethyl)cyclopropane sulfonamide]	< 100
CC(NS(=O)(=O)C1CC1)c1cn(CC(C)(C)C)c2cc(-c3ncccc3C#N)c(F)cc12 (single isomer, unassigned) [Compound 19, (R or S)—N-(1-(6-(3-cyanopyridin-2-yl)-5-fluoro-1-neopentyl-1H-indol-3-yl)ethyl)cyclopropanesulfonamide]	< 100
CC(NS(=O)(=O)C1CC1)c1cn(CC(C)(C)C)c2cc(-c3ncccc3C#N)c(F)cc12 (single isomer, unassigned) [Compound 20, (S or R)—N-(1-(6-(3-cyanopyridin-2-yl)-5-fluoro-1-neopentyl-1H-indol-3-yl)ethyl)cyclopropanesulfonamide]	100 to 1000
CC(NS(=O)(=O)C1CC1)c1cn(CC(C)(C)C)c2cc(C3CCOCC3)ccc12 (single isomer, unassigned) [Compound 23, (R or S) N-(1-(1-neopentyl-6-(tetrahydro-2H-pyran-4-yl)-1H-indol-3-yl)ethyl)cyclopropanesulfonamide]	< 100
CC(NS(=O)(=O)C1CC1)c1cn(CC(C)(C)C)c2cc(C3CCOCC3)ccc12 (single isomer, unassigned) [Compound 24, (S or R) N-(1-(1-neopentyl-6-(tetrahydro-2H-pyran-4-yl)-1H-indol-3-yl)ethyl)cyclopropanesulfonamide]	100 to 1000
CC(NS(=O)(=O)C1CC1)c1cn(CC(C)(C)C)c2cc(-c3c(F)cccc3C#N)ccc12 (single isomer, unassigned) [Compound 26, (R or S) N-(1-(6-(2-cyano-6-fluorophenyl)-1-neopentyl-1H-indol-3-yl)ethyl)cyclopropanesulfonamide]	100 to 1000
CC(NS(=O)(=O)C1CC1)c1cn(CC(C)(C)C)c2cc(-c3c(F)cccc3C#N)ccc12 (single isomer, unassigned) [Compound 27, (S or R) N-[(1R)-1-[6-(2-cyano-6-fluoro-phenyl)-1-(2,2-dimethylpropyl)indol-3-yl]ethyl]cyclo]	< 100
CC(NS(=O)(=O)C1CC1)c1cn(CC(C)(C)C)c2cc(-c3cccnc3C(F)(F)F)c(F)cc12 (single isomer, unassigned) [Compound 28, N-[1-[1-(2,2-dimethylpropyl)-5-fluoro-6-[2-(trifluoromethyl)-3-pyridyl]indol-3-yl]ethyl]cyclopropanesulfonamide]	< 100
CC(NS(=O)(=O)C1CC1)c1cn(CC(C)(C)C)c2cc(-c3cccnc3C(F)(F)F)c(F)cc12 (single isomer, unassigned) [Compound 29, (S or R) N-[1-[1-(2,2-dimethylpropyl)-5-fluoro-6-[2-(trifluoromethyl)-3-pyridyl]indol-3-yl]ethyl]cyclopropanesulfonamide]	100 to 1000
CC(NS(=O)(=O)C1CC1)c1cn(CC(C)(C)C)c2cc(-c3cnccc3C#N)c(F)cc12 (single isomer, unassigned) [Compound 32, (R or S) N-(1-(6-(4-cyanopyridin-3-yl)-5-fluoro-1-neopentyl-1H-indol-3-yl)ethyl)cyclopropanesulfonamide]	< 100
CC(NS(=O)(=O)C1CC1)c1cn(CC(C)(C)C)c2cc(-c3cnccc3C#N)c(F)cc12 (single isomer, unassigned) [Compound 33, (S or R) N-(1-(6-(4-cyanopyridin-3-yl)-5-fluoro-1-neopentyl-1H-indol-3-yl)ethyl)cyclopropanesulfonamide]	100 to 1000
